{"source": "patent US20260176319A1", "about": "“PEPTIDE ANALOGS AND METHODS OF USING THE SAME” (Kallyope, Inc., priority 2024, published 2026)", "note": "Starred links: 1 amine or outer side, 2 acyl side, 3 side chain; linkers in the order of their positions; H or OH if unused. Non-standard residues stand in square brackets, D forms with d. Residues, ends and D or L forms follow the SMILES beside them. *: point of attachment. d(γGlu) = O=C(O)[C@@H](CCC(=O)[*:2])N[*:1]; C18 diacid = O=C(O)CCCCCCCCCCCCCCCCC(=O)*; γGlu = O=C(O)[C@H](CCC(=O)[*:2])N[*:1]; 2Nal = N[C@@H](Cc1ccc2ccccc2c1)C(=O)O; 3Pal = N[C@@H](Cc1cccnc1)C(=O)O; Nle = CCCC[C@H](N)C(=O)O; AEEA = NCCOCCOCC(=O)O; Sar = CNCC(=O)O"}
{"target": "T1, human GRP receptors (Homo sapiens, UniProt P30550)", "T1 construct": "host or cells: U2OS", "T1 sequence (P30550 whole entry)": "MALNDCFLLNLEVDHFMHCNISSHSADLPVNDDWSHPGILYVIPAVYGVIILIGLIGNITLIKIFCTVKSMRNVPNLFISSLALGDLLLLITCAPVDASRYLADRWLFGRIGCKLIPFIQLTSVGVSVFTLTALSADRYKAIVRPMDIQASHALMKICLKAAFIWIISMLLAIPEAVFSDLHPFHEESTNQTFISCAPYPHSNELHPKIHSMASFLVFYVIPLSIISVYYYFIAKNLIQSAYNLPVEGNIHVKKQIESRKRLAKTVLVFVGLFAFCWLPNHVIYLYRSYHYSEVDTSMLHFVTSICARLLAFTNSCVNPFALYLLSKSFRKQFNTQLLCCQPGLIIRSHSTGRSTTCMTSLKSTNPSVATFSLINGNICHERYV", "experiment": "IP1 GRPR activity: HTRF IP1-Gq assay in U2OS cells stably expressing human GRP receptors", "assay_type": "cell-based", "conditions": "90 minutes incubation, read-out: hIP1 GRPR EC50", "protocol": "U2OS cells stably expressing human GRP receptors (DiscoverX, #93-0229C3) were cultured according to manufacturer's instructions. Cells were cultured to […], then collected using AccuTase (Innovative Cell Technologies, #AT104). Cells were washed and plated on a poly-D-lysine-coated 384-well plate (ThermoFisher, #A3890401) at a density of 2,500 cells/well in […] assay buffer (AssayComplete Cell Plating 5 Reagent, DiscoverX #93-0563R5), then incubated overnight at 37° C. and 5% C02. The following morning, a homogenous time-resolved fluorescence (HTRF) assay was performed in a 384-well plate format using the IP1-Gq assay kit (Cisbio, 62IPAPEB). Test compounds were made as a stock in DMSO, then serially diluted to generate 10-point dose response curves in IP1 stimulation buffer. Five microliters of the prepared compounds were then added to the plate containing cells and assay buffer in duplicate, and the cells were incubated at 37° C. and 5% CO2 for 90 minutes. Following compound incubation, […] of IP1 lysis/detection buffer (prepared according to manufacturer's instructions) was added to each well, and the plates were incubated at room temperature for 1 hour. HTRF signals were measured using a plate reader (ClarioSTAR), calculating the ratio between emissions at 665 nm and 620 nm (HTRF ratio). HTRF ratio for positive (Max, […]; SEQ ID NO. 45) and negative (Min, DMSO) controls were used to normalize HTRF data and generate values for % activity. EC50 and Max activity values were determined using a standard 4-parameter fit using GraphPad Prism.", "units": {"EC50": "µM"}}
{"smiles": "CCCC[C@H](NC(=O)[C@H](CC(C)C)NC(=O)[C@H](Cc1c[nH]cn1)NC(=O)[C@@H](C)NC(=O)[C@@H](NC(=O)[C@H](C)NC(=O)[C@H](Cc1c[nH]cn1)NC(=O)[C@H](Cc1c[nH]cn1)NC(=O)[C@H](CC(N)=O)NC(=O)CNC(=O)COCCOCCNC(=O)COCCOCCNC(=O)CC[C@@H](NC(=O)CCCCCCCCCCCCCCCCC(=O)O)C(=O)O)C(C)C)C(N)=O", "note": "[Peptide 68, Octadecanedioyl-D-γGlu-OEG-OEG-Gly-Asn-His-His-Ala-Val-D-Ala-His-Leu-Nle-NH2] ({C18 diacid-d(γGlu)-AEEA-AEEA}-GNHHAV[dA]HL[Nle]-NH2)", "EC50": "> 10"}
{"smiles": "CC(C)C[C@H](NC(=O)[C@H](Cc1c[nH]cn1)NC(=O)[C@@H](C)NC(=O)[C@@H](NC(=O)[C@H](C)NC(=O)[C@H](Cc1c[nH]c2ccccc12)NC(=O)[C@H](Cc1c[nH]cn1)NC(=O)[C@H](CC(N)=O)NC(=O)CNC(=O)COCCOCCNC(=O)COCCOCCNC(=O)CC[C@@H](NC(=O)CCCCCCCCCCCCCCCCC(=O)O)C(=O)O)C(C)C)C(=O)N[C@@H](CCCNC(=N)N)C(N)=O", "note": "[Peptide 69, Octadecanedioyl-D-γGlu-OEG-OEG-Gly-Asn-His-Trp-Ala-Val-D-Ala-His-Leu-Arg-NH2] ({C18 diacid-d(γGlu)-AEEA-AEEA}-GNHWAV[dA]HLR-NH2)", "EC50": "> 10"}
{"smiles": "CCCC[C@H](NC(=O)[C@H](CC(C)C)NC(=O)[C@H](Cc1c[nH]cn1)NC(=O)[C@@H](C)NC(=O)[C@@H](NC(=O)[C@H](C)NC(=O)[C@H](Cc1c[nH]c2ccccc12)NC(=O)[C@H](Cc1cccnc1)NC(=O)[C@H](CC(N)=O)NC(=O)CNC(=O)COCCOCCNC(=O)COCCOCCNC(=O)CC[C@@H](NC(=O)CCCCCCCCCCCCCCCCC(=O)O)C(=O)O)C(C)C)C(=O)N(C)CC(N)=O", "note": "[Peptide 72, Octadecanedioyl-D-γGlu-OEG-OEG-Gly-Asn-3Pal-Trp-Ala-Val-D-Ala-His-Leu-Nle-Sar-NH2] ({C18 diacid-d(γGlu)-AEEA-AEEA}-GN[3Pal]WAV[dA]HL[Nle][Sar]-NH2)", "EC50": 1.05}
{"smiles": "CCCC[C@H](NC(=O)[C@H](CC(C)C)NC(=O)[C@H](Cc1c[nH]cn1)NC(=O)[C@@H](C)NC(=O)[C@@H](NC(=O)[C@H](C)NC(=O)[C@H](Cc1ccc2ccccc2c1)NC(=O)[C@H](Cc1c[nH]cn1)NC(=O)[C@H](CC(N)=O)NC(=O)CNC(=O)COCCOCCNC(=O)COCCOCCNC(=O)CC[C@H](NC(=O)CCCCCCCCCCCCCCCCC(=O)O)C(=O)O)C(C)C)C(=O)N(C)CC(N)=O", "note": "[Peptide 99, Octadecanedioyl-γGlu-OEG-OEG-Gly-Asn-His-2Nal-Ala-Val-D-Ala-His-Leu-Nle-Sar-NH2] ({C18 diacid-γGlu-AEEA-AEEA}-GNH[2Nal]AV[dA]HL[Nle][Sar]-NH2)", "EC50": "> 10"}
{"smiles": "CCCC[C@H](NC(=O)[C@H](CC(C)C)NC(=O)[C@H](Cc1c[nH]cn1)NC(=O)[C@@H](C)NC(=O)[C@@H](NC(=O)[C@H](C)NC(=O)[C@H](Cc1c[nH]cn1)NC(=O)[C@H](Cc1c[nH]cn1)NC(=O)[C@H](CC(N)=O)NC(=O)CNC(=O)COCCOCCNC(=O)COCCOCCNC(=O)CC[C@H](NC(=O)CCCCCCCCCCCCCCCCC(=O)O)C(=O)O)C(C)C)C(N)=O", "note": "[Peptide 107, Octadecanedioyl-γGlu-OEG-OEG-Gly-Asn-His-His-Ala-Val-D-Ala-His-Leu-Nle-NH2] ({C18 diacid-γGlu-AEEA-AEEA}-GNHHAV[dA]HL[Nle]-NH2)", "EC50": "> 10"}
{"smiles": "CCCC[C@H](NC(=O)[C@H](CC(C)C)NC(=O)[C@H](Cc1c[nH]cn1)NC(=O)[C@@H](C)NC(=O)[C@@H](NC(=O)[C@H](C)NC(=O)[C@H](CCCNC(=N)N)NC(=O)[C@H](Cc1c[nH]cn1)NC(=O)[C@H](CC(N)=O)NC(=O)CNC(=O)COCCOCCNC(=O)COCCOCCNC(=O)CC[C@H](NC(=O)CCCCCCCCCCCCCCCCC(=O)O)C(=O)O)C(C)C)C(N)=O", "note": "[Peptide 108, Octadecanedioyl-γGlu-OEG-OEG-Gly-Asn-His-Arg-Ala-Val-D-Ala-His-Leu-Nle-NH2] ({C18 diacid-γGlu-AEEA-AEEA}-GNHRAV[dA]HL[Nle]-NH2)", "EC50": "> 10"}
{"smiles": "CCCC[C@H](NC(=O)[C@H](CC(C)C)NC(=O)[C@H](Cc1c[nH]cn1)NC(=O)[C@@H](C)NC(=O)[C@@H](NC(=O)[C@H](C)NC(=O)[C@H](Cc1c[nH]c2ccccc12)NC(=O)[C@H](Cc1c[nH]cn1)NC(=O)[C@H](CC(N)=O)NC(=O)CNC(=O)COCCOCCNC(=O)COCCOCCNC(=O)CC[C@H](NC(=O)CCCCCCCCCCCCCCCCC(=O)O)C(=O)O)C(C)C)C(=O)N[C@@H](CCCNC(=N)N)C(N)=O", "note": "[Peptide 114, Octadecanedioyl-γGlu-OEG-OEG-Gly-Asn-His-Trp-Ala-Val-D-Ala-His-Leu-Nle-Arg-NH2] ({C18 diacid-γGlu-AEEA-AEEA}-GNHWAV[dA]HL[Nle]R-NH2)", "EC50": "> 10"}
{"smiles": "CCCC[C@H](NC(=O)[C@H](CC(C)C)NC(=O)[C@H](Cc1c[nH]cn1)NC(=O)[C@@H](C)NC(=O)[C@@H](NC(=O)[C@@H](C)NC(=O)[C@H](Cc1c[nH]c2ccccc12)NC(=O)[C@H](Cc1c[nH]cn1)NC(=O)[C@H](CC(N)=O)NC(=O)CNC(=O)COCCOCCNC(=O)COCCOCCNC(=O)CC[C@H](NC(=O)CCCCCCCCCCCCCCCCC(=O)O)C(=O)O)C(C)C)C(=O)N(C)CC(N)=O", "note": "[Peptide 115, Octadecanedioyl-γGlu-OEG-OEG-Gly-Asn-His-Trp-D-Ala-Val-D-Ala-His-Leu-Nle-Sar-NH2] ({C18 diacid-γGlu-AEEA-AEEA}-GNHW[dA]V[dA]HL[Nle][Sar]-NH2)", "EC50": "> 10"}
{"smiles": "CCCC[C@H](NC(=O)[C@H](CC(C)C)NC(=O)[C@H](Cc1c[nH]cn1)NC(=O)[C@@H](C)NC(=O)[C@@H](NC(=O)[C@H](C)NC(=O)[C@H](Cc1c[nH]cn1)NC(=O)[C@H](Cc1c[nH]cn1)NC(=O)[C@H](CCCNC(=N)N)NC(=O)CNC(=O)COCCOCCNC(=O)COCCOCCNC(=O)CC[C@H](NC(=O)CCCCCCCCCCCCCCCCC(=O)O)C(=O)O)C(C)C)C(N)=O", "note": "[Peptide 116, Octadecanedioyl-γGlu-OEG-OEG-Gly-Arg-His-His-Ala-Val-D-Ala-His-Leu-Nle-NH2] ({C18 diacid-γGlu-AEEA-AEEA}-GRHHAV[dA]HL[Nle]-NH2)", "EC50": "> 10"}
{"smiles": "CCCC[C@H](NC(=O)[C@H](CC(C)C)NC(=O)[C@H](Cc1c[nH]cn1)NC(=O)[C@@H](C)NC(=O)[C@@H](NC(=O)[C@H](C)NC(=O)[C@H](CCCNC(=N)N)NC(=O)[C@H](Cc1c[nH]cn1)NC(=O)[C@H](CC(N)=O)NC(=O)CNC(=O)COCCOCCNC(=O)COCCOCCNC(=O)CC[C@H](NC(=O)CCCCCCCCCCCCCCCCC(=O)O)C(=O)O)C(C)C)C(=O)N(C)CC(N)=O", "note": "[Peptide 130, Octadecanedioyl-γGlu-OEG-OEG-Gly-Asn-His-Arg-Ala-Val-D-Ala-His-Leu-Nle-Sar-NH2] ({C18 diacid-γGlu-AEEA-AEEA}-GNHRAV[dA]HL[Nle][Sar]-NH2)", "EC50": "> 10"}
{"smiles": "CCCC[C@H](NC(=O)[C@H](CC(C)C)NC(=O)[C@H](Cc1c[nH]cn1)NC(=O)[C@@H](C)NC(=O)[C@@H](NC(=O)[C@@H](C)NC(=O)[C@H](Cc1c[nH]c2ccccc12)NC(=O)[C@H](Cc1c[nH]cn1)NC(=O)[C@H](CC(=O)O)NC(=O)CNC(=O)COCCOCCNC(=O)COCCOCCNC(=O)CC[C@H](NC(=O)CCCCCCCCCCCCCCCCC(=O)O)C(=O)O)C(C)C)C(N)=O", "note": "[Peptide 139, Octadecanedioyl-γGlu-OEG-OEG-Gly-Asp-His-Trp-D-Ala-Val-D-Ala-His-Leu-Nle-NH2] ({C18 diacid-γGlu-AEEA-AEEA}-GDHW[dA]V[dA]HL[Nle]-NH2)", "EC50": "> 10"}
